Measured values: PubChem BioAssay (NCI)
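Each compound was tested at five concentrations against cells in 96-well plates for 48 hours. GI50 is the concentration that inhibits growth by half. TGI: concentration producing complete growth inhibition.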

Assays:
Experiment in all cases: NCI-60 cell line screen, 48 h
[1] = tested on: SK-MEL-2 melanoma
[2] = tested on: U251 CNS
[3] = tested on: OVCAR-4 ovarian
[4] = tested on: T-47D breast
[5] = tested on: HT29 colon
[6] = tested on: HOP-62 NSCLC
[7] = tested on: NCI-H226 lung
[8] = tested on: NCI-H460 lung
[9] = tested on: NCI-H23 lung
[10] = tested on: OVCAR-5 ovarian
[11] = tested on: MDA-MB-231 breast
[12] = tested on: OVCAR-3 ovarian
[13] = tested on: KM12 colon
[14] = tested on: SF-295 CNS
[15] = tested on: BT-549 breast
[16] = tested on: SK-OV-3 ovarian
[17] = tested on: MDA-MB-468 breast
[18] = tested on: COLO 205 colon
[19] = tested on: NCI-H522 lung
[20] = tested on: NCI/ADR-RES ovarian
[21] = tested on: RPMI-8226 leukemia
[22] = tested on: SNB-75 CNS
[23] = tested on: MOLT-4 leukemia
[24] = tested on: SN12C renal
[25] = tested on: UACC-62 melanoma
[26] = tested on: HCT-15 colon
[27] = tested on: SF-268 CNS
[28] = tested on: SK-MEL-5 melanoma
[29] = tested on: TK-10 renal
[30] = tested on: MALME-3M melanoma
[31] = tested on: HL-60(TB) leukemia
[32] = tested on: A549 NSCLC
[33] = tested on: A498 renal
[34] = tested on: IGROV1 ovarian
[35] = tested on: DU-145 prostate
[36] = tested on: ACHN renal
[37] = tested on: SW-620 colon
[38] = tested on: HOP-92 NSCLC
[39] = tested on: SF-539 CNS
[40] = tested on: CAKI-1 renal
[41] = tested on: OVCAR-8 ovarian
[42] = tested on: SNB-19 CNS
[43] = tested on: HCT-116 colon
[44] = tested on: RXF 393 renal
[45] = tested on: EKVX NSCLC
[46] = tested on: HS 578T breast
[47] = tested on: 786-0 renal
[48] = tested on: SK-MEL-28 melanoma
[49] = tested on: PC-3 prostate
[50] = tested on: CCRF-CEM leukemia
[51] = tested on: LOX IMVI melanoma
[52] = tested on: HCC-2998 colon
[53] = tested on: K-562 leukemia
[54] = tested on: UACC-257 melanoma
[55] = tested on: UO-31 renal
[56] = tested on: MDA-MB-435
[57] = tested on: M14 melanoma
[58] = tested on: MCF7 breast

SMILES: CC(=C(c1ccc(OCCCN(C)C)cc1)c1ccc(OCCCN(C)C)cc1)c1ccccc1
- GI50 [1]: 3.01 µM
- TGI [1]: 6.16 µM
- GI50 [2]: 461 nM
- TGI [2]: 1020 nM
- GI50 [3]: 571 nM
- TGI [3]: 1800 nM
- GI50 [4]: 327 nM
- TGI [4]: 688 nM
- GI50 [5]: 385 nM
- TGI [5]: 917 nM
- GI50 [6]: 2620 nM
- TGI [6]: 5.93 µM
- GI50 [7]: 3.89 µM
- TGI [7]: 8.05 µM
- GI50 [8]: 431 nM
- TGI [8]: 1030 nM
- GI50 [9]: 2480 nM
- TGI [9]: 5.3 µM
- GI50 [10]: 1160 nM
- TGI [10]: 4.11 µM
- GI50 [11]: 420 nM
- TGI [11]: 907 nM
- GI50 [12]: 454 nM
- TGI [12]: 1280 nM
- GI50 [13]: 771 nM
- TGI [13]: 2690 nM
- GI50 [14]: 403 nM
- TGI [14]: 848 nM
- GI50 [15]: 2440 nM
- TGI [15]: 5.42 µM
- GI50 [16]: 3.51 µM
- TGI [16]: 6.79 µM
- GI50 [17]: 358 nM
- TGI [17]: 805 nM
- GI50 [18]: 396 nM
- TGI [18]: 744 nM
- GI50 [19]: 354 nM
- TGI [19]: 746 nM
- GI50 [20]: 1770 nM
- TGI [20]: 4.65 µM
- GI50 [21]: 608 nM
- TGI [21]: 1820 nM
- GI50 [22]: 804 nM
- TGI [22]: 4.09 µM
- GI50 [23]: 627 nM
- TGI [23]: 2430 nM
- GI50 [24]: 2440 nM
- TGI [24]: 5.29 µM
- GI50 [25]: 377 nM
- TGI [25]: 709 nM
- GI50 [26]: 635 nM
- TGI [26]: 2290 nM
- GI50 [27]: 609 nM
- TGI [27]: 3.1 µM
- GI50 [28]: 363 nM
- TGI [28]: 679 nM
- GI50 [29]: 714 nM
- TGI [29]: 3.56 µM
- GI50 [30]: 343 nM
- TGI [30]: 640 nM
- GI50 [31]: 389 nM
- TGI [31]: 1050 nM
- GI50 [32]: 753 nM
- TGI [32]: 3.18 µM
- GI50 [33]: 3.9 µM
- TGI [33]: 7.22 µM
- GI50 [34]: 1170 nM
- TGI [34]: 4.02 µM
- GI50 [35]: 1100 nM
- TGI [35]: 3.82 µM
- GI50 [36]: 473 nM
- TGI [36]: 1040 nM
- GI50 [37]: 339 nM
- TGI [37]: 708 nM
- GI50 [38]: 508 nM
- TGI [38]: 3.28 µM
- GI50 [39]: 353 nM
- TGI [39]: 660 nM
- GI50 [40]: 515 nM
- TGI [40]: 1760 nM
- GI50 [41]: 979 nM
- TGI [41]: 3.76 µM
- GI50 [42]: 835 nM
- TGI [42]: 3.24 µM
- GI50 [43]: 370 nM
- TGI [43]: 847 nM
- GI50 [44]: 339 nM
- TGI [44]: 874 nM
- GI50 [45]: 2430 nM
- TGI [45]: 5.28 µM
- GI50 [46]: 448 nM
- TGI [46]: 1780 nM
- GI50 [47]: 352 nM
- TGI [47]: 736 nM
- GI50 [48]: 376 nM
- TGI [48]: 685 nM
- GI50 [49]: 818 nM
- TGI [49]: 3.28 µM
- GI50 [50]: 438 nM
- TGI [50]: 1130 nM
- GI50 [51]: 380 nM
- TGI [51]: 706 nM
- GI50 [52]: 570 nM
- TGI [52]: 2080 nM
- GI50 [53]: 621 nM
- TGI [53]: 22 µM
- GI50 [54]: 360 nM
- TGI [54]: 699 nM
- GI50 [55]: 360 nM
- TGI [55]: 733 nM
- GI50 [56]: 470 nM
- TGI [56]: 1150 nM
- GI50 [57]: 386 nM
- TGI [57]: 768 nM
- GI50 [58]: 213 nM
- TGI [58]: 655 nM
